Test results from US10647688B2, “Compounds, synthesis method thereof and use of same in medicine and in cosmetics” (GALDERMA RESEARCH & DEVELOPMENT, priority 2014, dated 2020).

What was measured:
Type in all cases: cell-based
RARβ = molecular target: T1, RARβ (Homo sapiens, UniProt P10826); test: Transactivation reporter test (luciferase) in HeLa ERE Luc-hRAR cells, RARβ; conditions: for EC50: HeLa ERE Luc-hRAR cells, dose-response 10000 nM-0.04 nM, 18 hours incubation; for RARβ Comments: agonist type (total/partial); for RARβ Efficacy (%): normalized to basal control and maximum efficacy control CD0193 100 nM
T1 construct: expressed in transfected cells; line from Prof; Ballaguer, INSERM 439, Montpellier
T1 sequence (P10826 183-417 limits assumed): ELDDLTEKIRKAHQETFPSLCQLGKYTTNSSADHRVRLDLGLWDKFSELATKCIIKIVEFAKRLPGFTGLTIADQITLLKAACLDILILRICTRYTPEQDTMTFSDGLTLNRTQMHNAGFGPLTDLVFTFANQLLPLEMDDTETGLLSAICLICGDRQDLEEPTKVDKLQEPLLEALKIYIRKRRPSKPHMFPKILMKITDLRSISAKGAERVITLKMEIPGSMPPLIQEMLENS
Protocol: (§1) The activity of our molecules on the RAR is measured using a recombinant line expressing the ligand-biding domain (LBD) of RAR fused with the DNA binding domain (DBD) of the estrogen receptors. The specific transactivation of the receptor on the receptor estrogen response element (ERE) leads to transcription of luciferase. The expression of this reporter gene is quantified by luminescence after addition of its substrate, luciferin.
(§2) This line was produced by Prof. Ballaguer (INSERM 439, Montpellier) after stable transfection of HeLa by ERE-βGlob-Luc-SV-Neo and RAR(α, β, γ)-ER-DBD-puro plasmids.
(§3) The compounds are evaluated by dose-response (10000 nM-0.04 nM) normalized relative to a basal control and a maximum efficacy control (CD0193, reference agonist with 100 nM saturating concentration): Y=((X−0%)/(100%−0%))*100.
(§4) The affinity (EC50 in nM) and efficacy (in %) are measured using the XLfit (IDBS) software according to a four-parameter nonlinear regression (model 205).
(§5) HeLa ERE Luc-hRAR cells are inoculated on 96 well microplates (10,000 cell/100 μL). After 4 hours of incubation at 37° C./5% CO2, they are treated with 5 μL of 20× products (0.1 final DMSO).

RARα = molecular target: T2, RARα (Homo sapiens, UniProt P10276); test: Transactivation reporter test (luciferase) in HeLa ERE Luc-hRAR cells, RARα; conditions: for EC50: HeLa ERE Luc-hRAR cells, dose-response 10000 nM-0.04 nM, 18 hours incubation; for RARα Comments: agonist type (total/partial); for RARα Efficacy: normalized to basal control and maximum efficacy control CD0193 100 nM
T2 construct: expressed in transfected cells; line from Prof; Ballaguer, INSERM 439, Montpellier
T2 sequence (P10276 183-417 limits assumed): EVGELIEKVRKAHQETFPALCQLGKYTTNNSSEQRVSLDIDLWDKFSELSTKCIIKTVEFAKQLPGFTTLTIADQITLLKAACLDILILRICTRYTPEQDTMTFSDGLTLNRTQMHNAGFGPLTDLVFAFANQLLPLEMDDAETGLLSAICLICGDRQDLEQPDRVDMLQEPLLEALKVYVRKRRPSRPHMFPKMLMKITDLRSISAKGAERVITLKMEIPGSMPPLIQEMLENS
Protocol: as §1, §2, §3, §4, §5

RARγ = molecular target: T3, RARγ (Homo sapiens, UniProt P13631); test: Transactivation reporter test (luciferase) in HeLa ERE Luc-hRAR cells, RARγ; conditions: for EC50: HeLa ERE Luc-hRAR cells, dose-response 10000 nM-0.04 nM, 18 hours incubation; for RARγ Comments: agonist type (total/partial); for RARγ Efficacy (%): normalized to basal control and maximum efficacy control CD0193 100 nM
T3 construct: expressed in transfected cells; line from Prof; Ballaguer, INSERM 439, Montpellier
T3 sequence (P13631 185-419 limits assumed): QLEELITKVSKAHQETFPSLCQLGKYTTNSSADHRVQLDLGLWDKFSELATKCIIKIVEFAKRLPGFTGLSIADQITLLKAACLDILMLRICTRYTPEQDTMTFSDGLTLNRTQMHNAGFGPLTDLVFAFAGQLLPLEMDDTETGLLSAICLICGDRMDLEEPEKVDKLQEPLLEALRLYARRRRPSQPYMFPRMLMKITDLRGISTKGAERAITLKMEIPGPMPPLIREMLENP
Protocol: as §1, §2, §3, §4, §5

In the case of CCOc1ccc(-c2noc(-c3ccc(C(=O)O)cc3)n2)cc1C(C)(C)C [4-[3-(3-tert-butyl-4-ethoxy-phenyl)-[1,2,4]oxadiazol-5-yl]-benzoic acid], the EC50 (RARβ) is reported as 3.8 nM, the “RARβ Comments” value (RARβ) is reported as “Total agonist” and the “RARβ Efficacy (%)” value (RARβ) is reported as 92%. For the same compound, the EC50 (RARα) was 255 nM, the “RARα Comments” value (RARα) was “Total” and the “RARα Efficacy” value (RARα) was 105%. For the same compound, the EC50 (RARγ) was 9.3 nM, the “RARγ Comments” value (RARγ) was “Total” and the “RARγ Efficacy (%)” value (RARγ) was 96%.
With CCOCOc1ccc(-c2noc(-c3ccc(C(=O)O)cc3)n2)cc1C(C)(C)C [4-[3-(3-tert-butyl-4-ethoxymethoxy-phenyl)-[1,2,4]oxadiazol-5-yl]-benzoic acid] the EC50 (RARβ) was 6.2 nM, the “RARβ Comments” value (RARβ) was “Total agonist” and the “RARβ Efficacy (%)” value (RARβ) was 95%. For the same compound, the EC50 (RARα) was 650 nM, the “RARα Comments” value (RARα) was “Total” and the “RARα Efficacy” value (RARα) was 104%. For the same compound, the EC50 (RARγ) was 10 nM, the “RARγ Comments” value (RARγ) was “Total” and the “RARγ Efficacy (%)” value (RARγ) was 88%.
In the case of CC(C)(C)c1cc(-c2noc(-c3ccc(C(=O)O)cc3)n2)ccc1O [4-[3-(3-tert-butyl-4-hydroxy-phenyl)-[1,2,4]oxadiazol-5-yl]-benzoic acid], the EC50 (RARβ) is reported as 3 nM, the “RARβ Comments” value (RARβ) is reported as “Total agonist” and the “RARβ Efficacy (%)” value (RARβ) is reported as 110%. For the same compound, the EC50 (RARα) was 107 nM, the “RARα Comments” value (RARα) was “Total” and the “RARα Efficacy” value (RARα) was 106%. For the same compound, the EC50 (RARγ) was 2.4 nM, the “RARγ Comments” value (RARγ) was “Total” and the “RARγ Efficacy (%)” value (RARγ) was 110%.
With COc1ccc(-c2cnc(-c3ccc(C(=O)O)cc3)s2)cc1C(C)(C)C [4-[5-(3-tert-butyl-4-methoxy-phenyl)-thiazol-2-yl]-benzoic acid] the EC50 (RARβ) was 164 nM, the “RARβ Comments” value (RARβ) was “partial agonist” and the “RARβ Efficacy (%)” value (RARβ) was 46%. The EC50 (RARα) was 109 nM, the “RARα Comments” value (RARα) was “partial agonist” and the “RARα Efficacy” value (RARα) was 53%. For the same compound, the EC50 (RARγ) was 66 nM, the “RARγ Comments” value (RARγ) was “partial agonist” and the “RARγ Efficacy (%)” value (RARγ) was 40%.
With CC1(C)CCC(C)(C)c2cc(-c3cnc(-c4ccc(C(=O)O)cc4)s3)ccc21 [4-[5-(5,5,8,8-tetramethyl-5,6,7,8-tetrahydro-naphthalen-2-yl)-thiazol-2-yl]-benzoic acid] the EC50 (RARβ) was 52 nM, the “RARβ Comments” value (RARβ) was “Total agonist” and the “RARβ Efficacy (%)” value (RARβ) was 110%. The EC50 (RARα) was 9790 nM, the “RARα Comments” value (RARα) was “Total” and the “RARα Efficacy” value (RARα) was 64%. For the same compound, the EC50 (RARγ) was 162 nM, the “RARγ Comments” value (RARγ) was “Total” and the “RARγ Efficacy (%)” value (RARγ) was 78%.
CCOCOc1ccc(-c2noc(-c3ccc(C(=O)O)cc3)n2)cc1C1(C)CCCCC1 [4-{3-[4-ethoxymethoxy-3-(1-methyl-cyclohexyl)-phenyl]-[1,2,4]oxadiazol-5-yl}-benzoic acid] was tested, and the EC50 (RARβ) was 0.56 nM, the “RARβ Comments” value (RARβ) was “Total agonist” and the “RARβ Efficacy (%)” value (RARβ) was 107%. The EC50 (RARα) was 90 nM, the “RARα Comments” value (RARα) was “Total” and the “RARα Efficacy” value (RARα) was 80%. The EC50 (RARγ) was 0.9 nM, the “RARγ Comments” value (RARγ) was “Total” and the “RARγ Efficacy (%)” value (RARγ) was 102%.
For CCCOc1ccc(-c2cnc(-c3ccc(C(=O)O)cc3)s2)cc1C1(C)CCCCC1 [4-{5-[3-(1-methyl-cyclohexyl)-4-propoxy-phenyl]-thiazol-2-yl}-benzoic acid], the EC50 (RARβ) was 635 nM, the “RARβ Comments” value (RARβ) was “Total agonist” and the “RARβ Efficacy (%)” value (RARβ) was 90%. The EC50 (RARα) was 3170 nM, the “RARα Comments” value (RARα) was “Total” and the “RARα Efficacy” value (RARα) was 68%. For the same compound, the EC50 (RARγ) was 1030 nM, the “RARγ Comments” value (RARγ) was “Total” and the “RARγ Efficacy (%)” value (RARγ) was 74%.
